# Source: patent US12012410B2, “Substituted pyrazolo[1,5-a]pyrazines for spinal muscular atrophy” (REBORNA BIOSCIENCES, INC., priority 2018, dated 2024)
# Test system: FL-SMN mRNA (SMN transcript containing exons 7 and 8)
# Assay: Live-cell assay to measure changes in FL-SMN mRNA levels (qPCR) after exposure to the compounds
# Type: cell-based, human
# Settings: fibroblasts derived from patients SMA (GM03813); 24 hours incubation
# How it was run: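 SMA patient fibroblasts (GM03813) in DMEM/10% FBS were treated with compound (0.1% DMSO final) for 24 h. FL-SMN and Δ7 mRNA were measured by RT-qPCR against oligo DNA standard curves and normalised to GAPDH. Values are % of the DMSO control, binned by asterisk from ≥100% to ≥180%.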
row,Compound,"Percentage of increase (FL-SMN mRNA standardized against GAPDH, DMSO control set as 100%)"
1,"Cc1cn2nc(-c3nc4ccc(N5CCNC(C)(C)C5)cc4c(=O)[nH]3)cc2c(C)n1 [Example 122, 6-(3,3-Dimethylpiperazin-1-yl)-2-(4,6-dimethylpyrazolo[1,5-a]pyrazin-2-yl)quinazolin-4(3H)-one bistrifluoroacetate]",**** (equal to or higher than 180%)
2,"Cc1nc2ccc(-c3ccc4nc(C5CCN(C)CC5)[nH]c(=O)c4c3)cc2s1 [Example 14, 6-(2-Methyl-1,3-benzothiazol-6-yl)-2-(1-methylpiperidin-4-yl)quinazolin-4(3H)-one]",*** (equal to or higher than 150% but lower than 180%)
3,"CCc1nc(C)cn2nc(-c3nc4ccc(N5CCN(C)CC5)cc4c(=O)[nH]3)cc12 [Example 5, 2-(4-Ethyl-6-methylpyrazolo[1,5-α]pyrazin-2-yl)-6-(4-methylpiperazin-1-yl)quinazolin-4(3H)-one]",*** (equal to or higher than 150% but lower than 180%)
4,"CC[C@H]1CN(C)CCN1c1ccc2nc(-c3cc4c(C)nc(C)cn4n3)[nH]c(=O)c2c1 [Example 129, (S)-2-(4,6-dimethylpyrazolo[1,5-a]pyrazin-2-yl)-6-(2-ethyl-4-methylpiperazin-1-yl)quinazolin-4(3H)-one]",*** (equal to or higher than 150% but lower than 180%)
5,"COc1cc(-c2ccc3nc(C4CCN(C)CC4)[nH]c(=O)c3c2)cn2cc(C)nc12 [Example 22, 6-(8-methoxy-2-methylimidazo[1,2-a]pyridine-6-yl)-2-(1-methylpiperidine-4-yl) kinazoline-4 (3H)-one]",**** (equal to or higher than 180%)
6,"Cc1nc2ccc(-c3cc(F)c4nc(C5CCN(C)CC5)[nH]c(=O)c4c3)cc2o1 [Example 30, 8-fluoro-6-(2-methyl-1,3-benzoxazol-6-yl)-2-(1-methylpiperidin-4-yl)quinazolin-4(3H)-one]",**** (equal to or higher than 180%)
7,"Cc1cn2cc(-c3ccc4nc(C5CCN(C)CC5)[nH]c(=O)c4c3)cc(Cl)c2n1 [Example 17, 6-(8-Chloro-2-methylimidazo[1,2-α]pyridin-6-yl)-2-(1-methylpiperidin-4-yl)quinazolin-4(3H)-one]",*** (equal to or higher than 150% but lower than 180%)
8,"Cc1nc2ccc(-c3ccc4nc(C5CCN(C)CC5)[nH]c(=O)c4c3)cn2c1C [Example 67, 6-(2,3-dimethylimidazo[1,2-a]pyridin-6-yl)-2-(1-methylpiperidin-4-yl)quinazolin-4(3H)-one]",** (equal to or higher than 120% but lower than 150%)
9,"Cc1cn2nc(-c3nc4ccc(N5CCN(C6CC6)CC5)cc4c(=O)[nH]3)cc2c(C)n1 [Example 36, 6-(4-cyclopropylpiperazin-1-yl)-2-(4,6-dimethylpyrazolo[1,5-a]pyrazin-2-yl)quinazolin-4(3H)-one]",**** (equal to or higher than 180%)
10,"CC[C@@H]1CN(C)CCN1c1ccc2nc(-c3cc4c(C)nc(C)cn4n3)[nH]c(=O)c2c1 [Example 132, (R)-2-(4,6-dimethylpyrazolo[1,5-a]pyrazin-2-yl)-6-(2-ethyl-4-methylpiperazin-1-yl)quinazolin-4(3H4)-one]",*** (equal to or higher than 150% but lower than 180%)
11,"COc1ccc(-c2cc(F)c3nc(C4CCN(C)CC4)[nH]c(=O)c3c2)cc1F [Example 87, 8-fluoro-6-(3-fluoro-4-methoxyphenyl)-2-(1-methylpiperidin-4-yl)quinazolin-4(3H7)-one]",**** (equal to or higher than 180%)
12,"Cc1nc2ccc(-c3ccc4nc(C5CCN(C6CC6)CC5)[nH]c(=O)c4c3)cc2o1 [Example 83, 2-(1-cyclopropylpiperidin-4-yl)-6-(2-methyl-1,3-benzoxazol-6-yl)quinazolin-4(3H)-one]",** (equal to or higher than 120% but lower than 150%)
13,"Cc1cn2cc(-c3nc4cc(F)c(N5CCN(C)CC5)cc4c(=O)[nH]3)cc(F)c2n1 [Example 56, 7-fluoro-2-(8-fluoro-2-methylimidazo[1,2-a]pyridin-6-yl)-6-(4-methylpiperazin-1-yl)quinazolin-4(3H)-one]",** (equal to or higher than 120% but lower than 150%)
14,"Cc1cn2nc(-c3nc4ccc(C5CCN(C)CC5)cc4c(=O)[nH]3)cc2c(C)n1 [Example 2, 2-(4,6-Dimethylpyrazolo[1,5-a]pyrazin-2-yl)-6-(1-methylpiperidin-4-yl)quinazolin-4(3H)-one]",**** (equal to or higher than 180%)
15,"Cc1cn2nc(-c3nc4ccc(N5CCN6CCCCC6C5)cc4c(=O)[nH]3)cc2c(C)n1 (stereo not shown) [Example 124, 2-(4,6-dimethylpyrazolo[1,5-a]pyrazin-2-yl)-6-(octahydro-2H-pyrido[1,2-a]pyrazin-2-yl)quinazolin-4(3H)-one]",*** (equal to or higher than 150% but lower than 180%)
16,"Cc1nc2c(F)cc(-c3ccc4nc(C5CCN(C(C)C)CC5)[nH]c(=O)c4c3)cc2o1 [Example 38, 6-(4-Fluoro-2-methyl-1,3-benzoxazol-6-yl)-2-(1-isopropylpiperidin-4-yl)quinazolin-4(3H)-one]",**** (equal to or higher than 180%)
17,"COc1cc(C2CCN(C)CC2)cc2c(=O)[nH]c(-c3cc4c(C)nc(C)cn4n3)nc12 [Example 52, 2-(4,6-dimethylpyrazolo[1,5-a]pyrazin-2-yl)-8-methoxy-6-(1-methylpiperidin-4-yl)quinazolin-4(3H)-one]",** (equal to or higher than 120% but lower than 150%)
18,"Cc1cn2cc(-c3ccc4nc(C5(F)CCN(C)CC5)[nH]c(=O)c4c3)ccc2n1 [Example 37, 2-(4-fluoro-1-methylpiperidin-4-yl)-6-(2-methylimidazo[1,2-a]pyridin-6-yl)quinazolin-4(3H)-one]",*** (equal to or higher than 150% but lower than 180%)
19,"Cc1cn2cc(-c3cc(F)c4nc(C5CCN(C6CC6)CC5)[nH]c(=O)c4c3)cc2cn1 [Example 33, 2-(1-cyclopropylpiperidin-4-yl)-8-fluoro-6-(3-methylpyrrolo[1,2-a]pyrazin-7-yl)quinazolin-4(3H)-one acetate]",*** (equal to or higher than 150% but lower than 180%)
20,"Cc1cn2cc(-c3cc(C)c4nc(C5(F)CCN(C(C)C)CC5)[nH]c(=O)c4n3)cc(F)c2n1 [Example 101, 2-(4-fluoro-1-isopropylpiperidin-4-yl)-6-(8-fluoro-2-methylimidazo[1,2-a]pyridin-6-yl)-8-methylpyrido[3,2-d]pyrimidin-4(3H)-one]",*** (equal to or higher than 150% but lower than 180%)
21,"COc1cc2nc(-c3cc4c(C)nc(C)cn4n3)[nH]c(=O)c2cc1C1CCN(C)CC1 [Example 51, 2-(4,6-dimethylpyrazolo[1,5-a]pyrazin-2-yl)-7-methoxy-6-(1-methylpiperidin-4-yl)quinazolin-4(3H)-one]",* (equal to or higher than 100% but lower than 120%)
22,"Cc1cn2cc(-c3cc(C)c4nc(C5(F)CCN(C6CC6)CC5)[nH]c(=O)c4c3)cnc2n1 [Example 103, 2-(1-cyclopropyl-4-fluoropiperidin-4-yl)-6-(2-methylimidazo[1,2-a]pyrimidin-6-yl)-8-methylquinazolin-4(3H4)-one]",** (equal to or higher than 120% but lower than 150%)
23,"Cc1nc2ccc(-c3nc4cc(C)c(C5CCN(C)CC5)cc4c(=O)[nH]3)cc2o1 [Example 41, 7-methyl-2-(2-methyl-1,3-benzoxazol-6-yl)-6-(1-methylpiperidin-4-yl)quinazolin-4(3H)-one]",* (equal to or higher than 100% but lower than 120%)
24,"Cc1cn2cc(-c3ccc4nc(C5CCN(C)CC5)n(C)c(=O)c4c3)ccc2n1 [Example 69, 3-methyl-6-(2-methylimidazo[1,2-a]pyridin-6-yl)-2-(1-methylpiperidin-4-yl)quinazolin-4(3H)-one]",** (equal to or higher than 120% but lower than 150%)
25,"COc1cccc(-c2nc3ccc(C4CCN(C)CC4)cc3c(=O)[nH]2)n1 [Example 45, 2-(6-methoxypyridin-2-yl)-6-(1-methylpiperidin-4-yl)quinazolin-4(3H)-one]",** (equal to or higher than 120% but lower than 150%)
26,"Cc1cn2cc(-c3ccc4nc(C5CCN(C)CC5)[nH]c(=O)c4c3)c(C)cc2n1 [Example 63, 6-(2,7-dimethylimidazo[1,2-a]pyridin-6-yl)-2-(1-methylpiperidin-4-yl)quinazolin-4(3H)-one]",* (equal to or higher than 100% but lower than 120%)
27,"Cc1cn2nc(-c3nc4ccc(N5CCN(C6CC6)CC5)cc4c(=O)[nH]3)ccc2n1 [Example 118, 6-(4-cyclopropylpiperazin-1-yl)-2-(2-methylimidazo[1,2-b]pyridazin-6-yl)quinazolin-4(3H)-one]",*** (equal to or higher than 150% but lower than 180%)
28,"Cc1cn2cc(-c3cc(F)c4nc(C5(F)CCN(C(C)C)CC5)[nH]c(=O)c4c3)cc(F)c2n1 [Example 99, 8-fluoro-2-(4-fluoro-1-isopropylpiperidin-4-yl)-6-(8-fluoro-2-methylimidazo[1,2-a]pyridin-6-yl)quinazolin-4(3H)-one]",**** (equal to or higher than 180%)
